Data on two molecules can be found in ChEMBL document CHEMBL1153443, “Development of an in-capillary approach to nanoscale automated in vitro cytochromes p450 assays” (J Med Chem, 2009).

The structures appear in SMILES notation.

The target of the data set is CYP2D6 (Homo sapiens, UniProt P10635). In words: Inhibition of human recombinant CYP2D6 at 5 uM assessed as blockade of O-demethylation of dextromethorphan in to dextrophan by nanoscale automated in-capillary assay. In kind it is ADME. Conditions: recombinant CYP2D6, probe dextromethorphan (O-demethylation to dextrorphan).
Sequence of CYP2D6 (P10635 whole entry): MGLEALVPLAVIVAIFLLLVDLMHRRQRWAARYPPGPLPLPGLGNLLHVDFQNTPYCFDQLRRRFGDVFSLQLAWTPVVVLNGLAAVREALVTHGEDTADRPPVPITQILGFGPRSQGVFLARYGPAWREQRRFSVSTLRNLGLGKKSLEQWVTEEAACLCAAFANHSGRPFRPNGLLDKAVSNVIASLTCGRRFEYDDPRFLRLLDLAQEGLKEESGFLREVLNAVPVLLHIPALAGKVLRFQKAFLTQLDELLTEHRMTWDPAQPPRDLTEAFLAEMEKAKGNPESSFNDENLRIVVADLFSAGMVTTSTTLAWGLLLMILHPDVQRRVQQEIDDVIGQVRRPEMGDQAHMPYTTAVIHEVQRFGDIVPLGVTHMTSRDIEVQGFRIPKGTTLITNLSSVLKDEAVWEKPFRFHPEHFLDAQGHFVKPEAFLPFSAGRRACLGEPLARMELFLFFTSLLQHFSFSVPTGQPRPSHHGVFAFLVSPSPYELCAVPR

In general, inhibition refers to the drop in the measured response relative to a control, in per cent. As for `CNCCC(Oc1ccc(C(F)(F)F)cc1)c1ccccc1` (configuration not stated) [FLUOXETINE], the inhibition at 5 µM was found to be 20%.

Regarding `COc1ccc(C(CN(C)C)C2(O)CCCCC2)cc1` (configuration not stated) [VENLAFAXINE], the inhibition at 5 µM came to 0%.
